This note sets out measurements from patent US20260085053A1, “BENZOFURAN DERIVATIVES AS SIK INHIBITORS AND THE USE THEREOF” (BEONE MEDICINES I GMBH, priority 2023, published 2026).

Assay [1] addresses T1, SIK3 kinase (aa59-365, Thermo Fisher) (Homo sapiens, UniProt Q9Y2K2).
T1 construct: SIK3 kinase (aa59-365, Thermo Fisher); purchased Thermo Fisher
Put plainly: Biochemical activities determination for SIK3 protein (TR-FRET). As to conditions: 125 uM ATP, 0.5 μM STK1 substrate. The procedure: 3. Biochemical Activities Determination for SIK3 Protein
Compounds were tested for inhibition of SIK3 kinase (aa59-365, Thermo Fisher) in assays based on the time-resolved fluorescence-resonance energy transfer (TR-FRET) methodology. The assays were carried out in 384-well low volume white plates in a reaction mixture containing SIK3 kinase, 125 uM ATP, 0.5 μM STK1 substrate and 0-10 μM compound in buffer containing 25 mM Tris, 0.01% Trition X-100, 0.5 mM EGTA, 5 mM MgCl2, 2.5 mM DTT, PH=7.5. The kinase was incubated with compound for 60 minutes at room temperature and the reaction was initiated by the addition of ATP and STK1 substrate. After reaction at room temperature for 180 minutes, an equal volume of stop/detection solution was added according to the manufacture's instruction (CisBio Bioassays). The stop/detection solution contained STK Antibody-Cryptate and XL665-conjugated streptavidin (Cat: 62ST1PEC, Cisbio) in Detection Buffer (Cat: 62SDBRDF, Cisbio). Plates were sealed and incubated at room temperature for overnight, and the TR-FRET signals (ratio of fluorescence emission at 665 nm over emission at 620 nm with excitation at 337 nm wavelength) were recorded on a PHERAstar FS plate reader (BMG Labtech). Phosphorylation of STK1 substrate led to the binding of STK Antibody-Cryptate to the biotinylated STK1 substrate, which places fluorescent donor (Eu^3+ crypate) in close proximity to the accepter (Streptavidin-XL665), thus resulting in a high degree of fluorescence resonance energy transfer from the donor fluorophore (at 620 nm) to the acceptor fluorophore (at 665 nm). […] The IC50 for each compound was derived from fitting the data to the four-parameter logistic equation by Dotmatics.

Assay [2] has as its target T2, SIK1 kinase (aa1-303, Thermo Fisher) (Homo sapiens, UniProt P57059).
T2 construct: SIK1 kinase (aa1-303, Thermo Fisher); purchased Thermo Fisher
Briefly: Biochemical activities determination for SIK1 protein (TR-FRET). As to conditions: 110 uM ATP, 0.5 μM STK1 substrate. The procedure:
1. Biochemical Activities Determination for SIK1 Protein
(§1) Compounds were tested for inhibition of SIK1 kinase (aa1-303, Thermo Fisher) in assays based on the time-resolved fluorescence-resonance energy transfer (TR-FRET) methodology. The assays were carried out in 384-well low volume white plates in a reaction mixture containing SIK1 kinase, 110 uM ATP, 0.5 μM STK1 substrate and 0-10 μM compound in buffer containing 25 mM Tris, 0.01% Trition X-100, 0.5 mM EGTA, 5 mM MgCl2, 2.5 mM DTT, pH=7.5. The kinase was incubated with compounds for 60 minutes at room temperature and the reaction was initiated by the addition of ATP and STK1 substrate. After reaction at room temperature for 180 minutes, an equal volume of stop/detection solution was added according to the manufacture's instruction (CisBio Bioassays). The stop/detection solution contained STK Antibody-Cryptate and XL665-conjugated streptavidin (Cat: 62ST1PEC, Cisbio) in Detection Buffer (Cat: 62SDBRDF, Cisbio). Plates were sealed and incubated at room temperature for overnight, and the TR-FRET signals (ratio of fluorescence emission at 665 nm over emission at 620 nm with excitation at 337 nm wavelength) were recorded on a PHERAstar FS plate reader (BMG Labtech). Phosphorylation of STK1 substrate led to the binding of STK Antibody-Cryptate to the biotinylated SIK1 substrate, which places fluorescent donor (Eu^3+ crypate) in close proximity to the accepter (Streptavidin-XL665), thus resulting in a high degree of fluorescence resonance energy transfer from the donor fluorophore (at 620 nm) to the acceptor fluorophore (at 665 nm). […] The IC50 for each compound was derived from fitting the data to the four-parameter logistic equation by Dotmatics.

Assay [3] deals with T3, SIK2 kinase (full length, Thermo Fisher) (Homo sapiens, UniProt Q9H0K1).
T3 construct: SIK2 kinase (full length, Thermo Fisher); purchased Thermo Fisher
T3 sequence (Q9H0K1 whole entry): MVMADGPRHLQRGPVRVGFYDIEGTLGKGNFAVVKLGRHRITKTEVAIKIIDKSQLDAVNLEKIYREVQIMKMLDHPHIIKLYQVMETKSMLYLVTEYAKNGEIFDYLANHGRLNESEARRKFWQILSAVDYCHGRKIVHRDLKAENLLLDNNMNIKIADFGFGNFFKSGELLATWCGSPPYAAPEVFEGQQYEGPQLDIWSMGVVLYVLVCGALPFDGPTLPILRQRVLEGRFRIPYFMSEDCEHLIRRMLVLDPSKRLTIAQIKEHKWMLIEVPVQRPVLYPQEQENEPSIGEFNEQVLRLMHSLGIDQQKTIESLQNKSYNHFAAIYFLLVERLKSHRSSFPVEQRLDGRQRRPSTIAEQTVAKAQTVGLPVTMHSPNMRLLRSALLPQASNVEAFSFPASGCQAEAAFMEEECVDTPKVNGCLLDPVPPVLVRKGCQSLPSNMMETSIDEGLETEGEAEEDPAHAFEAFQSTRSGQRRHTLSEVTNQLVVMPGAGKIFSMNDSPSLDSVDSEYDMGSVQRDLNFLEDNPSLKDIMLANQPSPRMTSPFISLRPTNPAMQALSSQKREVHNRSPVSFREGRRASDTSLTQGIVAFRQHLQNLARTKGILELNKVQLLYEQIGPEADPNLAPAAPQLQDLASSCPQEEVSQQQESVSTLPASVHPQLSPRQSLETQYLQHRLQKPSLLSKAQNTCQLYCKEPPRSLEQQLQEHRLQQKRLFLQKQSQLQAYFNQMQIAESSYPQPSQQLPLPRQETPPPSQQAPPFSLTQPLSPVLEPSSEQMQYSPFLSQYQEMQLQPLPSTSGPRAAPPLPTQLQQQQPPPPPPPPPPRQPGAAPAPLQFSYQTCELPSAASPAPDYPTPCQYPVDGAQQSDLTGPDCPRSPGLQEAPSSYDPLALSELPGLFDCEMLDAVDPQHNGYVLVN
Put plainly: Biochemical activities determination for SIK2 protein (TR-FRET). As to conditions: 80 uM ATP, 0.5 μM substrate. The procedure:
2. Biochemical Activities Determination for SIK2 Protein
as §1, with “of SIK2” for “of SIK1”, “kinase (full length,” for “kinase (aa1-303,”, “containing SIK2” for “containing SIK1”, “kinase, 80” for “kinase, 110”, “μM […]” for “μM STK1”, “biotinylated STK1” for “biotinylated SIK1”

Each structure is given as a SMILES string.

T1 sequence (Q9Y2K2 59-365): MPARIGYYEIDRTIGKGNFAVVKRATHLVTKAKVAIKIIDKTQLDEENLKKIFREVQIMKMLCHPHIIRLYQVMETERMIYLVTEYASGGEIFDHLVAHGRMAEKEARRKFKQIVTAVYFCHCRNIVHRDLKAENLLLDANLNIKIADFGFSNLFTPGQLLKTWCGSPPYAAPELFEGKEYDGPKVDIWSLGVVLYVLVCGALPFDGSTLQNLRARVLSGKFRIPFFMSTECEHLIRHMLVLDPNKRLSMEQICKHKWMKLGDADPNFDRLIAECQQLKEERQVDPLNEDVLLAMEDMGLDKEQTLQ
T2 sequence (P57059 1-303): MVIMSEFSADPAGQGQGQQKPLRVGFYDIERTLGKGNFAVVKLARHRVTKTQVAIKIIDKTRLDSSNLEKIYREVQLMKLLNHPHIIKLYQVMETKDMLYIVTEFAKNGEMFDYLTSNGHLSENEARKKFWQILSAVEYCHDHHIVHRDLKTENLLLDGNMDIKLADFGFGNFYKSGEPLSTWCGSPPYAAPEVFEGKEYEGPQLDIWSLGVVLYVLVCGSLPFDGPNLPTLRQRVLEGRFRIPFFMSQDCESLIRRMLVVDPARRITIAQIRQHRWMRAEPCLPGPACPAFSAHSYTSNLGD

Take `COc1cc(-c2coc3cc(OCCN4CCCC4)ccc23)cc(OC(F)F)c1C(=O)NC1CCCCC1N` (racemic) [Compound 124, N-(2-aminocyclohexyl)-2-(difluoromethoxy)-6-methoxy-4-(6-(2-(pyrrolidin-1-yl)ethoxy)benzofuran-3-yl)benzamide]: the figures for the IC50 in assay [1], in assay [2] and in assay [3] were 161 nM, 1220 nM and 18 nM, respectively.
`COc1cc(-c2coc3cc(OCCN4CCCC4)ccc23)cc(OC(F)F)c1C(=O)NC1CCCC1N` (racemic) [Compound 130, N-(2-aminocyclopentyl)-2-(difluoromethoxy)-6-methoxy-4-(6-(2-(pyrrolidin-1-yl)ethoxy)benzofuran-3-yl)benzamide]: the results for the half-inhibitory concentration (IC50) in assay [1], in assay [2] and in assay [3] were 359 nM, more than 10000 nM and 103 nM, respectively.
`COc1cc(-c2coc3cc(OCCN4CCCC4)ccc23)cc(OC(F)F)c1C(=O)NC1CC1N` (racemic) [Compound 131, N-(2-aminocyclopropyl)-2-(difluoromethoxy)-6-methoxy-4-(6-(2-(pyrrolidin-1-yl)ethoxy)benzofuran-3-yl)benzamide]: the IC50 was 1560 nM in assay [1], more than 10000 nM in assay [2] and 653 nM in assay [3].
Consider `COc1cc(-c2coc3cc(-c4cn(C)nc4C)ccc23)cc2c1C(=O)N(CC(F)(F)F)CC2` [Compound 15, 6-(6-(1,3-dimethyl-1H-pyrazol-4-yl)benzofuran-3-yl)-8-methoxy-2-(2,2,2-trifluoroethyl)-3,4-dihydroisoquinolin-1 (2H)-one], for which the values for the IC50 in assay [1], in assay [2] and in assay [3] were 174 nM, 6040 nM and 95 nM, respectively.
As to `COc1cc(-c2coc3cc(-c4cn(C)nc4C(F)(F)F)ccc23)cc2c1C(=O)N(CC(F)(F)F)CC2` [Compound 16, 8-methoxy-6-(6-(1-methyl-3-(trifluoromethyl)-1H-pyrazol-4-yl)benzofuran-3-yl)-2-(2,2,2-trifluoroethyl)-3,4-dihydroisoquinolin-1 (2H)-one], the results for the half-inhibitory concentration (IC50) in assay [1], in assay [2] and in assay [3] were 5840 nM, more than 10000 nM and 3350 nM, respectively.
Regarding `COc1cc(-c2coc3cc(-c4cn(C)nn4)ccc23)cc2c1C(=O)N(CC(F)(F)F)CC2` [Compound 17, 8-methoxy-6-(6-(1-methyl-1H-1,2,3-triazol-4-yl)benzofuran-3-yl)-2-(2,2,2-trifluoroethyl)-3,4-dihydroisoquinolin-1 (2H)-one], the 50% inhibitory concentration (IC50) in assay [1] came out at 79 nM; in assay [2] it was 2310 nM; in assay [3], 28 nM.
As to `COc1cc(-c2coc3cc(-c4cn(C)nc4C#N)ccc23)cc2c1C(=O)N(CC(F)(F)F)CC2` [Compound 18, 4-(3-(8-methoxy-1-oxo-2-(2,2,2-trifluoroethyl)-1,2,3,4-tetrahydroisoquinolin-6-yl)benzofuran-6-yl)-1-methyl-1H-pyrazole-3-carbonitrile], the IC50 in assay [1] was 237 nM; in assay [2] it was more than 10000 nM; in assay [3] it was 214 nM.
With `COc1cc(-c2coc3cc(-c4cn(C)nc4OC)ccc23)cc2c1C(=O)N(CC(F)(F)F)CC2` [Compound 19, 8-methoxy-6-(6-(3-methoxy-1-methyl-1H-pyrazol-4-yl)benzofuran-3-yl)-2-(2,2,2-trifluoroethyl)-3,4-dihydroisoquinolin-1 (2H)-one], the IC50 in assay [1] is 132 nM; in assay [2] it was 3130 nM; in assay [3] it was 80 nM.
As to `COc1cc(-c2coc3cc(-c4cnn(C)c4)ccc23)cc2c1C(=O)N(CC#N)CC2` [Compound 20, 2-(8-methoxy-6-(6-(1-methyl-1H-pyrazol-4-yl)benzofuran-3-yl)-1-oxo-3,4-dihydroisoquinolin-2 (1H)-yl) acetonitrile], the IC50 in assay [1] stood at 14 nM; in assay [2] it was 362 nM; in assay [3], 12 nM.
On to `Cn1cc(-c2ccc3c(-c4cc5c(c(OC(F)F)c4)C(=O)N(CC#N)CC5)coc3c2)cn1` [Compound 21, 2-(8-(difluoromethoxy)-6-(6-(1-methyl-1H-pyrazol-4-yl)benzofuran-3-yl)-1-oxo-3,4-dihydroisoquinolin-2 (1H)-yl) acetonitrile], for which the IC50 in assay [1] came out at 15 nM; in assay [2], 289 nM; in assay [3] it was 11 nM.
As to `COc1cc(-c2coc3cc(-c4cn(C)nc4F)ccc23)cc2c1C(=O)N(CC(F)(F)F)CC2` [Compound 22, 6-(6-(3-fluoro-1-methyl-1H-pyrazol-4-yl)benzofuran-3-yl)-8-methoxy-2-(2,2,2-trifluoroethyl)-3,4-dihydroisoquinolin-1 (2H)-one], the IC50 in assay [1] was found to be 127 nM; in assay [2], 5920 nM; in assay [3], 79 nM.
For `COc1cc(-c2coc3cc(-c4cn(C)nc4Cl)ccc23)cc2c1C(=O)N(CC(F)(F)F)CC2` [Compound 23, 6-(6-(3-chloro-1-methyl-1H-pyrazol-4-yl)benzofuran-3-yl)-8-methoxy-2-(2,2,2-trifluoroethyl)-3,4-dihydroisoquinolin-1 (2H)-one] the same measures were 387 nM, more than 10000 nM and 223 nM.
Taken in the same sequence, the figures for `Cn1cc(-c2ccc3c(-c4cc5c(c(OC(F)F)c4)C(=O)N(CC(N)=O)CC5)coc3c2)cn1` [Compound 24, 2-(8-(difluoromethoxy)-6-(6-(1-methyl-1H-pyrazol-4-yl)benzofuran-3-yl)-1-oxo-3,4-dihydroisoquinolin-2 (1H)-yl) acetamide] were 320 nM, 3340 nM and 281 nM.
As to `COc1cc(-c2coc3cc(-c4cnn(C)c4)ccc23)cc(OC(F)F)c1C(=O)NCC(F)(F)F` [Compound 25, 2-(difluoromethoxy)-6-methoxy-4-(6-(1-methyl-1H-pyrazol-4-yl)benzofuran-3-yl)-N-(2,2,2-trifluoroethyl)benzamide], the IC50 in assay [1] came to 26 nM; in assay [2], 195 nM; in assay [3], 15 nM.
Consider `COc1cc(-c2coc3cc(-c4cnn(C)c4)ccc23)cc(OC(F)F)c1C(=O)N[C@@H]1C[C@@H]1F` [Compound 26, 2-(difluoromethoxy)-N-((1R,2S)-2-fluorocyclopropyl)-6-methoxy-4-(6-(1-methyl-1H-pyrazol-4-yl)benzofuran-3-yl)benzamide], for which the 50% inhibitory concentration (IC50) in assay [1] stood at 5 nM; in assay [2], 33 nM; in assay [3] it was 3.4 nM.
